Data on 40 molecules can be found in patent publication US6531478B2, “Amino pyrazole derivatives useful for the treatment of obesity and other disorders” (priority 2000, dated 2003).

One test addresses T1, human neuropeptide Y5 receptor (Homo sapiens, UniProt Q15761).
T1 construct: expressed in transfected cells; host or cells: HEK-293, stably transfected, G-418 selected; membranes
T1 sequence (Q15761 1-445): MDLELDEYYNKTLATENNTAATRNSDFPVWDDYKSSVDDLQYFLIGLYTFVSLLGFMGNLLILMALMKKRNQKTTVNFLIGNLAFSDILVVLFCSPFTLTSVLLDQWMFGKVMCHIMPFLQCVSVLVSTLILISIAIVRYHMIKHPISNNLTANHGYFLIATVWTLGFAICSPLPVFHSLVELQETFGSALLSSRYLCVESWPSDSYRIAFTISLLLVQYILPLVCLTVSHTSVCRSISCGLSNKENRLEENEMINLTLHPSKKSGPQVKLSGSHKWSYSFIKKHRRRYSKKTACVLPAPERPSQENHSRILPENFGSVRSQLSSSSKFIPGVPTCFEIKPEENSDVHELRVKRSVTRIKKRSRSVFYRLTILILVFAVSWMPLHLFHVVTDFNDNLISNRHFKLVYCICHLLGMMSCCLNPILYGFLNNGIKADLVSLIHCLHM
Briefly: NPY5 HTS centrifugation assay: competition with 125I-PYY for binding to membranes of NPY5-transfected HEK-293 cells. The note with it: 3 μM test compound; inhibition of 125I-PYY binding. How it is done: NPY5 HTS Centrifugation Assay
The compounds described in this invention were evaluated for binding to the human neuropeptide Y5 receptor.
The human NPY5 receptor cDNA (Genbank Accession number U66275) was inserted into the vector pClneo (Invitrogen) and transfected into human embryonic kidney cells (HEK-293) via Calcium phosphate method (Cullen 1987). Stably transfected cells were selected with G-418 (600 ug/mL). Stably transfected cells served as the source for the membranes for the NPY5 receptor binding assay.
NPY5-transfected HEK293 cells were grown to confluence in 150 cm^2 culture dishes. Cells were washed once with phosphate-buffered saline (Gibco Cat# 14040-133). Cells were then incubated in phosphate-buffered saline without Calcium and without Magnesium, supplemented with 2 mM EDTA. Cells were incubated for 10 minutes at room temperature and the cells were collected by repetitive pipetting. Cells were formed into pellets and frozen at −80 until needed. Frozen pellets were homogenized with a polytron at full speed for 12 seconds in a homogenization buffer (20 mM Tris HCl, 5 mM EDTA, pH 7.4). Homogenates were centrifuged for 5 minutes at 4° C. at 200 g. Supernatants were transferred to corex tubes and centrifuged for 25 minutes at 28,000 g. Pellets were re-suspended in Binding (20 mM HEPES, 10 mM NaCl, 0.22 mM KH2PO4, 1.3 mM CaCl2, 0.8 mM MgSO4, pH 7.4). Membranes were kept on ice until use.
A competition binding assay, known to those skilled in the art, was used in which the test compounds (aminopyrazoles of formula (I) compete with ^1251I-PYY for binding to cell membranes. In simple terms, less ^125I-PYY bound to the membranes implies that the test compound is a good inhibitor (competitor). Bound ^1251I-PYY is determined by centrifugation the membranes, aspirating supernatant, washing away residual ^125I-PYY and subsequently counting the bound sample in a γ-counter.
Procedure for Radioligand Binding Assay
Compounds to be tested were prepared as 10× stocks in binding buffer and added first to assay tubes (RIA vials, Sarstedt). Twenty (20) μL of each 10× compound stock was pipetted into vials and 80 μL of ^125I-PYY (NEN catalog number NEX240), which had been diluted to a concentration of 200 pM in 0.25% BSA in binding buffer, was added to the compound tubes (final concentration of ^125I-PYY is 80 pM). To each tube was added 100 μL of membranes and the mixture was agitated by pipetting 2 times. Samples were incubated for 1 hr at room temperature. Aluminum cast plates (Sarstedt) containing the vials were centrifuged 10 minutes at 3200 rpm in a Sorvall RT6000. Supernatant was then aspirated. To each vial was added 400 μL PBS and the vial was then aspirated again. Vials were put in carrier polypropylene 12×75 tube and counted in gamma counter (Packard). Non-specific binding was determined in the presence of 300 nM NPY. Percent inhibition of ^125I-PYY binding was calculated by subtracting non-specific binding from the test samples (compounds of formula (I)), taking these counts and dividing by total binding, and multiplying by 100. Inhibitory concentration values (IC50) of compounds that show appreciable inhibition of ^125I-PYY binding were calculated by obtaining percent inhibition of ^125I-PYY binding values at different concentrations of the test compound, and using a graphing program such as GraphPad Prism (San Diego, Calif.) to calculate the concentration of test compound that inhibits fifty-percent of ^125I-PYY binding (Table 2). These operations are known to those skilled in the art.
With `O=C(Nc1ccc(F)cc1)c1ccc(-c2cc(NS(=O)(=O)c3ccccc3)n(-c3ccccc3)n2)cc1` [Cmpd 5], the “% Inh NPY5 @ 3 μM” value came to 0.00%.
Turning to `Cc1ccc(NC(=O)c2ccc(-c3cc(NS(=O)(=O)c4ccccc4)n(-c4ccccc4)n3)cc2)cc1` [Cmpd 6], the “% Inh NPY5 @ 3 μM” value was 0.00%.
Consider `COC(=O)c1ccc(-c2cc(N)n(-c3ccccc3)n2)cc1` [Cmpd 7], for which the “% Inh NPY5 @ 3 μM” value was determined as 13.00%.
Still for that read-out and setting: with `COC(=O)c1ccc(-c2cc(N(S(=O)(=O)c3ccccc3)S(=O)(=O)c3ccccc3)n(-c3ccccc3)n2)cc1` [Cmpd 8] the figure was 0%; with `O=C(O)c1ccc(-c2cc(NS(=O)(=O)c3ccccc3)n(-c3ccccc3)n2)cc1` [Cmpd 9], 0%; with `O=C(NCc1ccccc1)c1ccc(-c2cc(NS(=O)(=O)c3ccccc3)n(-c3ccccc3)n2)cc1` [Cmpd 10], 19.00%.
On the same count and under the same terms, for `O=C(Nc1cccc2ccccc12)c1ccc(-c2cc(NS(=O)(=O)c3ccccc3)n(-c3ccccc3)n2)cc1` [Cmpd 11] the value was 14.00%.
For `O=C(Nc1ccc2ccccc2c1)c1ccc(-c2cc(NS(=O)(=O)c3ccccc3)n(-c3ccccc3)n2)cc1` [Cmpd 12], the “% Inh NPY5 @ 3 μM” value was 2.00%.
Turning to `O=C(c1ccc(-c2cc(NS(=O)(=O)c3ccccc3)n(-c3ccccc3)n2)cc1)N1CCc2ccccc2C1` [Cmpd 13], the “% Inh NPY5 @ 3 μM” value turned out to be 12.00%.
With `Cc1ccc(-n2nc(-c3ccc(C(=O)Nc4ccccc4)cc3)cc2NS(=O)(=O)c2ccc(C)cc2)cc1` [Cmpd 15], the “% Inh NPY5 @ 3 μM” value is recorded as 4.00%.
For `Cc1ccc(-n2nc(-c3ccc(C(=O)Nc4ccc(F)cc4)cc3)cc2NS(=O)(=O)c2ccc(C)cc2)cc1` [Cmpd 16], the “% Inh NPY5 @ 3 μM” value is 1.00%.
Still for that read-out and setting: with `Cc1ccc(NC(=O)c2ccc(-c3cc(NS(=O)(=O)c4ccc(C)cc4)n(-c4ccc(C)cc4)n3)cc2)cc1` [Cmpd 17] the figure was 6.00%; with `COC(=O)c1ccc(-c2cc(NS(=O)(=O)c3ccccc3)n(-c3ccccc3)n2)cc1` [Cmpd 18], 2.00%; with `COC(=O)c1ccc(-c2cc(N)n(-c3ccc(C)cc3)n2)cc1` [Cmpd 19], 2.00%.
Consider `COC(=O)c1ccc(-c2cc(N(S(=O)(=O)c3ccc(C)cc3)S(=O)(=O)c3ccc(C)cc3)n(-c3ccc(C)cc3)n2)cc1` [Cmpd 20], for which the “% Inh NPY5 @ 3 μM” value came out at 0.00%.
On the same count and under the same terms, with `Cc1ccc(-n2nc(-c3ccc(C(=O)O)cc3)cc2NS(=O)(=O)c2ccc(C)cc2)cc1` [Cmpd 21] the figure was 16.00%; with `Cc1ccc(-n2nc(-c3ccc(N(S(=O)(=O)c4cccc(C(F)(F)F)c4)S(=O)(=O)c4cccc(C(F)(F)F)c4)cc3)cc2N)cc1` [Cmpd 26], 16.00%; with `Cc1ccc(-n2nc(-c3ccc(N(S(=O)(=O)c4ccc5ccccc5c4)S(=O)(=O)c4ccc5ccccc5c4)cc3)cc2N)cc1` [Cmpd 27], 0.00%.
Still for that read-out and setting: for `CC(=O)Nc1ccc(S(=O)(=O)N(c2ccc(-c3cc(N)n(-c4ccc(C)cc4)n3)cc2)S(=O)(=O)c2ccc(NC(C)=O)cc2)cc1` [Cmpd 28] the value was 21.00%; for `Cc1ccc(-n2nc(-c3ccc(N(S(=O)(=O)c4ccc(OC(F)(F)F)cc4)S(=O)(=O)c4ccc(OC(F)(F)F)cc4)cc3)cc2N)cc1` [Cmpd 29], 16.00%.
Regarding `Cc1ccc(-n2nc(-c3ccc(C(=O)O)cc3)cc2N)cc1` [Cmpd 32], the “% Inh NPY5 @ 3 μM” value is 0.00%.
The same measure, in the same setting: with `Cc1ccc(NC(=O)c2ccc(-c3cc(N)n(-c4ccc(C)cc4)n3)cc2)cc1` [Cmpd 33] the figure was 0.00%; with `Cc1ccc(-n2nc(-c3ccc(N(S(=O)(=O)c4cccc5ccccc45)S(=O)(=O)c4cccc5ccccc45)cc3)cc2N)cc1` [Cmpd 35], 29.00%.
Regarding `Cc1ccc(-n2nc(-c3ccc(N(S(=O)(=O)c4cc(C(F)(F)F)cc(C(F)(F)F)c4)S(=O)(=O)c4cc(C(F)(F)F)cc(C(F)(F)F)c4)cc3)cc2N)cc1` [Cmpd 40], the “% Inh NPY5 @ 3 μM” value is on record as 16.00%.
As to `Cc1ccc(-n2nc(-c3ccc(NS(=O)(=O)c4cc(C(F)(F)F)cc(C(F)(F)F)c4)cc3)cc2N)cc1` [Cmpd 41], the “% Inh NPY5 @ 3 μM” value worked out at 10.00%.
With `Cc1ccc(-n2nc(-c3ccc(NS(=O)(=O)c4cccc5cccnc45)cc3)cc2N)cc1` [Cmpd 43], the “% Inh NPY5 @ 3 μM” value is recorded as 62.00%.
In the case of `Cc1ccc(-n2nc(-c3ccc(NS(=O)(=O)c4cccc5ccccc45)cc3)cc2N)cc1` [Cmpd 44], the “% Inh NPY5 @ 3 μM” value is reported as 72.00%.
Same read-out and setting: with `Cc1ccc(-n2nc(-c3ccc(N(S(=O)(=O)c4ccc(C(F)(F)F)cc4)S(=O)(=O)c4ccc(C(F)(F)F)cc4)cc3)cc2N)cc1` [Cmpd 46] the figure was 21.00%.

Staying with this test, now noted: 3 μM test compound; inhibition of 125I-PYY binding; read-out: % Inh NPY5 @ 3 μM.
Regarding `O=C(Nc1ccccc1)c1ccc(-c2cc(NS(=O)(=O)c3ccccc3)n(-c3ccccc3)n2)cc1` [Cmpd 4, N-Phenyl-4-[1-phenyl-5-[(phenylsulfonyl)amino]-1H-pyrazol-3-yl]benzamide], the inhibition at 3 µM amounted to 0%.
For `COc1ccc(S(=O)(=O)Nc2ccc(-c3cc(N)n(-c4ccc(C)cc4)n3)cc2)cc1` [Cmpd 36], the inhibition at 3 µM stood at 100%.
Still for that read-out and setting: with `Cc1ccc(-n2nc(-c3ccc(NS(=O)(=O)c4ccccc4)cc3)cc2N)cc1` [Cmpd 37] the figure was 97%; with `Cc1ccc(-n2nc(-c3ccc(NS(=O)(=O)c4ccc(F)cc4)cc3)cc2N)cc1` [Cmpd 38], 98%.
`Cc1ccc(-n2nc(-c3ccc(NS(=O)(=O)c4cccc(C(F)(F)F)c4)cc3)cc2N)cc1` [Cmpd 39]: the inhibition at 3 µM came out at 95%.
Still for that read-out and setting: with `Cc1ccc(-n2nc(-c3ccc(NS(=O)(=O)c4ccc(OC(F)(F)F)cc4)cc3)cc2N)cc1` [Cmpd 42] the figure was 94%; with `Cc1ccc(-n2nc(-c3ccc(NS(=O)(=O)c4ccc5ccccc5c4)cc3)cc2N)cc1` [Cmpd 45], 90%.
Same read-out and setting: for `Cc1ccc(-n2nc(-c3ccc(NS(=O)(=O)c4ccc(C(F)(F)F)cc4)cc3)cc2N)cc1` [Cmpd 47] the value was 82%.

The same test, now with this note: 30 μM test compound (stated in cell); inhibition of 125I-PYY binding.
With `O=C(c1ccc(-c2cc(NS(=O)(=O)c3ccccc3)n(-c3ccccc3)n2)cc1)N1CCCc2ccccc21` [Cmpd 14], the “% Inh NPY5 @ 30 μM” value is listed as “(26.00 @ %”.

The same test, now with this note: inhibition of 125I-PYY binding; values in nM; read-out: IC50 hNPY5.
Regarding `Cc1ccc(S(=O)(=O)Nc2ccc(-c3cc(NS(=O)(=O)c4ccc(C)cc4)n(-c4ccccc4C)n3)cc2)cc1` [Cmpd 1], the IC50 (as a rule, the concentration at which inhibition is half-maximal) was 200 nM.
`Cc1ccc(-n2nc(-c3ccc(N(S(=O)(=O)c4ccccc4)S(=O)(=O)c4ccccc4)cc3)cc2N)cc1` [Cmpd 22, N-[4-[5-amino-1(4-methylphenyl)-1H-pyrazol-3-yl]phenyl]-N-(phenylsulfonyl)-benzenesulfonamide]: the IC50 stood at 514 nM.
As to `Cc1ccc(-n2nc(-c3ccc(NS(=O)(=O)c4ccc(C)cc4)cc3)cc2N)cc1` [Cmpd 31], the IC50 came out at 28 nM.
Still for that read-out and setting: with `COc1ccc(S(=O)(=O)Nc2ccc(-c3cc(N)n(-c4ccc(C)cc4)n3)cc2)cc1` [Cmpd 36] the figure was 15 nM; with `Cc1ccc(-n2nc(-c3ccc(NS(=O)(=O)c4ccccc4)cc3)cc2N)cc1` [Cmpd 37], 25 nM.
`Cc1ccc(-n2nc(-c3ccc(NS(=O)(=O)c4ccc(F)cc4)cc3)cc2N)cc1` [Cmpd 38]: the 50% inhibitory concentration (IC50) turned out to be 29 nM.
With `Cc1ccc(-n2nc(-c3ccc(NS(=O)(=O)c4cccc(C(F)(F)F)c4)cc3)cc2N)cc1` [Cmpd 39], the IC50 came out at 31 nM.
On the same count and under the same terms, with `Cc1ccc(-n2nc(-c3ccc(NS(=O)(=O)c4ccc(OC(F)(F)F)cc4)cc3)cc2N)cc1` [Cmpd 42] the figure was 67 nM; with `Cc1ccc(-n2nc(-c3ccc(NS(=O)(=O)c4ccc5ccccc5c4)cc3)cc2N)cc1` [Cmpd 45], 208 nM; with `Cc1ccc(-n2nc(-c3ccc(NS(=O)(=O)c4ccc(C(F)(F)F)cc4)cc3)cc2N)cc1` [Cmpd 47], 63 nM.
